ChEMBL document CHEMBL4219172, “Synthesis and biological evaluation of pyrimidine derivatives as novel human Pin1 inhibitors” (Bioorg Med Chem, 2018)

What follows are compounds tested against T1, Peptidyl-prolyl cis-trans isomerase NIMA-interacting 1 (Homo sapiens, UniProt Q13526) (assay: Inhibition of human N-terminal His6-tagged Pin1 PPIase activity expressed in Escherichia coli BL21 using Suc-Ala-Glu-cis-Pro-Phe-4-nitroanilide as substrate preincubated for 10 mins followed by substrate addition monitored for 90 secs by protease enzyme coupled based spectrophotometric analysis). Settings: not given.
T1 sequence (Q13526 whole entry): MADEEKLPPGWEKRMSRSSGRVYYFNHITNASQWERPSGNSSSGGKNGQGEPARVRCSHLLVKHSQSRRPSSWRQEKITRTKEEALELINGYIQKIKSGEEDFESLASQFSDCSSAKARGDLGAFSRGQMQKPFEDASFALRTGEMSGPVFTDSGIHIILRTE

Row | SMILES | IC50 [µM]
1 | O=[N+]([O-])c1cnc(Cl)nc1OC1CCCC1 | > 100
2 | CC1=C(/C=C/C(C)=C/C=C/C(C)=C/C(=O)O)C(C)(C)CCC1 [TRETINOIN] | 0.82
3 | O=C(O)c1cnc(Cl)nc1Oc1cccc2ocnc12 | 18.9
4 | O=[N+]([O-])c1cnc(Cl)nc1NC1CCCC1 | > 100
5 | FC(F)(F)c1cnc(Cl)nc1Oc1ccccc1 | > 100
6 | Nc1ccccc1Oc1nc(Cl)ncc1[N+](=O)[O-] | 33.5
7 | O=[N+]([O-])c1cnc(Cl)nc1Oc1cccc2ccccc12 | 22.6
8 | O=[N+]([O-])c1cnc(Cl)cc1Oc1cccc2ocnc12 | > 100
9 | O=C1CCC(=O)N1c1cnc(Cl)nc1Nc1ccccc1 | > 100
10 | O=C1C=CC(=O)c2c(O)cccc21 [JUGLONE] | 5.9
11 | FC(F)(F)c1cnc(Cl)nc1Oc1cccc2ocnc12 | > 100
12 | O=[N+]([O-])c1cnc(Cl)nc1Oc1ccc2ccccc2c1 | 16.6
13 | O=[N+]([O-])c1cnc(Cl)nc1Oc1ccccc1F | 2.52
14 | O=[N+]([O-])c1cnc(CCc2ccccc2)nc1Cl | 13.9
15 | Cc1cnc(Cl)nc1Oc1cccc2ocnc12 | > 100
16 | O=[N+]([O-])c1cnc(Cl)nc1Oc1ccccc1 | 2.24
17 | Clc1ncc(-c2ncco2)c(Nc2ccccc2)n1 | 9.87
18 | O=[N+]([O-])c1cnc(OCCc2ccccc2)nc1Cl | 7.27
19 | COc1ccccc1Oc1nc(Cl)ncc1[N+](=O)[O-] | 4.03
20 | O=C1C=CC(=O)N1c1cnc(Cl)nc1Nc1ccccc1 | 20.2
21 | N#Cc1ccccc1Oc1nc(Cl)ncc1[N+](=O)[O-] | 9.05
22 | O=[N+]([O-])c1cnc(Cl)nc1Oc1ccc(-c2ccccc2)cc1 | 34

Row | SMILES | IC50 [µM]
23 | N#Cc1cnc(Cl)nc1Oc1ccccc1 | 4.36
24 | O=[N+]([O-])c1cnc(Cl)nc1Oc1cccc2ocnc12 | 1.68
25 | COc1cccc(Oc2nc(Cl)ncc2[N+](=O)[O-])c1 | 5.04
26 | Cc1cnc(Cl)nc1Oc1ccccc1 | > 100
27 | COC(=O)c1cnc(Cl)nc1Oc1cccc2ocnc12 | > 100
28 | O=[N+]([O-])c1cnc(Cl)nc1Oc1ccccn1 | 3.48
29 | O=[N+]([O-])c1ccc(Cl)nc1Oc1cccc2ocnc12 | > 100
30 | O=[N+]([O-])c1cnc(-c2ccccc2)nc1Oc1cccc2ocnc12 | > 100
31 | O=[N+]([O-])c1cnc(Cl)nc1OC1CCCCC1 | > 100
32 | O=[N+]([O-])c1cnc(OCc2ccccc2)nc1Cl | 7.28
33 | O=[N+]([O-])c1cnc(Cl)nc1Nc1ccccc1 | 6.66
34 | O=[N+]([O-])c1cnc(Cl)nc1NC1CCCCC1 | > 100
35 | Cn1nc(-c2ccccc2)cc1Oc1nc(Cl)ncc1[N+](=O)[O-] | 2.17
36 | O=[N+]([O-])c1cnc(-c2ccc3ccccc3c2)nc1Oc1cccc2ocnc12 | > 100
37 | CNc1nc(Cl)ncc1[N+](=O)[O-] | > 100
38 | O=[N+]([O-])c1cnc(Cl)nc1OCc1ccccc1 | 8.33
39 | Clc1ncc(-c2nnco2)c(Nc2ccccc2)n1 | > 100
40 | O=[N+]([O-])c1cnc(Cl)nc1NCCc1ccccc1 | > 100
41 | Clc1ncc(Cl)c(Oc2ccccc2)n1 | > 100
42 | O=[N+]([O-])c1cncnc1Oc1cccc2ocnc12 | > 100
43 | O=[N+]([O-])c1cnc(Cl)nc1OCCc1ccccc1 | 4.08
44 | CS(=O)(=O)Nc1ccccc1Oc1nc(Cl)ncc1[N+](=O)[O-] | 5.2

The compounds below were run against T1, Peptidyl-prolyl cis-trans isomerase NIMA-interacting 1 (assay: Inhibition of human N-terminal His6-tagged Pin1 PPIase activity expressed in Escherichia coli BL21 using Suc-Ala-Glu-cis-Pro-Phe-4-nitroanilide as substrate by beckman coulter-paradigm assay). Settings: TDE = time-dependent effect.

Row | SMILES | inhibition
45 | O=[N+]([O-])c1cnc(Cl)nc1Oc1ccccc1 | Tde
46 | O=[N+]([O-])c1cnc(Cl)nc1Oc1cccc2ocnc12 | Tde
47 | O=[N+]([O-])c1cnc(OCc2ccccc2)nc1Cl | Tde
48 | O=[N+]([O-])c1cnc(Cl)nc1OCc1ccccc1 | Tde
